Key:
rhPKCβ2 = molecular target: T1, rhPKCβ2 (Homo sapiens, UniProt P05771); experiment: PKC activity assay; format: biochemical; details: 0.01 μM ATP; read-out: IC50 rhPKC activity
T1 construct: made in house; host or cells: baculovirus expression system
Description: (§1) RhPKCβ2 was expressed in a baculovirus expression system. Kinase reactions were conducted in 50 μl comprising 0.5 μg rhPKC diluted in 2 mM Tris, and 100 μM EGTA and reaction buffer comprising substrate (0.9 mM EGTA, 1.1 mM CaCl2, 0.01 mg/ml glycogen synthase peptide (H-[…]OH) (Bachem, King of Prussia, Pa.), 40 μg/ml L-α-Phosphatidyl-L-serine, 1 μg/ml 1,3-Diolen, 10 mM MgCl2, pH 7.5). To assess PKA activity, kinase reactions were conducted in 50 μl comprising 0.5 μg PKA (from bovine heart supplied by Sigma, St. Louis, Mo.) diluted in 10 mM MOPS, pH 6.5 and reaction buffer comprising substrate (50 mM MOPS, pH 6.5, 10 mM MgCl2, 0.1 mg/ml Histone-IIA (Sigma, St. Louis, Mo.), 1 μM cAMP). An ATP solution (0.01 μM ATP and 0.5 μCi of [γ^33-P] ATP) was then added to the wells in both assay systems. Inhibitors were added at the indicated concentrations with a final DMSO concentration of 10%. Reactions were allowed to proceed for 20 minutes at 37° C. and were stopped with 25 mM EDTA. The reactions were spotted onto filter paper, washed four times in a beaker comprising 75 mM phosphoric acid and rinsed with acetone. Filters were dried and put in scintillation vials with fluid and counted.

[1] = system: PMA-induced mouse ear skin hyperplasia; experiment: Tissue hyperplasia assay (PMA-induced mouse ear skin hyperplasia); format: in vivo
Description: To determine the in vivo efficacy of syctonemin, PMA-induced mouse ear skin hyperplasia model was used. As one cause of tissue hyperplasia is chronic inflammation, mouse ear skin was exposed to multiple PMA applications to simulate chronic inflammation. Specifically, 0.125, 0.25, 0.5, or 1.0 mg of scytonemin in 20 μl of 20% DMSO and 80% acetone was applied to the inner pinnae of the left ears of male, Swiss Webster mice (Taconic Farms, Germantown, N.Y.) at 0, 5, 24, 29, 48, and 53 hours. The inner pinnae of the right ears received only 10 μl of vehicle and 10 μl of acetone at 0, 5, 24, 29, 48, and 53 hours. At 0.5 and 48.5 hours, 4 μg/ear PMA (Sigma, St. Louis, Mo.) in 10 μl acetone was applied to the inner pinnae the left ears and 10 μl acetone was applied to each right ear. One hour after the last scytonemin application (54 hours) each mouse was injected with 0.6 ml of a solution containing IUdR (2 μCi-I^125/mouse) and 26 μg FUdR. This IUdR/FUdR solution was made up in RPMI 1640 media. At 72 hours, the mice were euthanized via CO2 inhalation, the ears were excised and soaked individually in a 70% EtOH solution overnight.
At 96 hours, IUdR incorporation was then measured using a Beckman Gamma counter, Model 5500B. […] IUdR incorporated was calculated by the following equation: % IUdR incorporation=(Count of Ear−Background)/(Total Count−Background). The percent of control of IUdR incorporation was calculated by the following equation: % Control=(% IUdR Uptake in Sample Ear)/(% IUdR Uptake PMA−Treated Control Ear)×100.
Alternatively, the cyrosections of the mouse ears were stained and histologically analyzed. […]
At 72 hours, the mice were euthanized and the ears were immediately embedded in a suitable hypoxy resin such as OCT media and snap frozen using melting isopentane using conventional methods. […] The sections were fixed and stained with hematoxlin and then analyzed under a microscope with a 10× magnification.

Jurkat T cells = experiment: Apoptosis assay (TUNEL, flow cytometry); format: cell-based; details: 3 μM, 24 hours
Description: To determine the mechanism behind the ability of SCY to inhibit cell proliferation, about 2×10^5 Jurkat T cells/ml were treated with vehicle (negative control), 3 μM SCY, or 3 μM camptothecin (positive control) a (0.1% DMSO[final]) and incubated at 37° C., 5% CO2 for 24 hours. As a positive control, camptothecin, a DNA topoisomerase inhibitor, was used because of its ability to arrest Jurkat cells at the G2/M phase of the cell cycle and induce the cells to undergo apoptosis. The cells were fixed in 1% paraformaldehyde, washed once with PBS, and stored in 70% EtOH at−20° C. Apoptosis was measured using the Promega Apoptosis Detection System (Promega, Madison, Wis.) an adapted TUNEL staining method.
The cells were washed two times with 5 ml PBS 2% FBS, then transferred to a microcentrifuge tube in 1 ml PBS, 0.2% Triton×100, 5 mg/ml BSA and incubated on ice for 5 minutes. Samples were spun, PBS solution removed, then resuspended in 80 μl equilibration buffer from Promega kit and incubated at room temperature for 10 minutes. Then the samples were spun and the equilibration buffer removed. A nucleotide mix comprising 45 μl equilibration buffer, 5 μl nucleotide mix, 1 μl Tdt enzyme per sample, was used to resuspend each sample in the dark. The cells were incubated in the dark at 37° C. for 1 hour. The reaction was terminated by the addition of 20 mM EDTA. The samples were washed twice with 1 ml RNAse A and a small aliquot, about 50 μl, was viewed under a microscope. Cells were stained with fluoroscein and then counterstained with propidium iodide and analyzed for DNA content and fragmentation using a Becton-Dickinson FacsSort (Becton-Dickinson, San Jose, Calif.).

GST-Tie2 = molecular target: T2, GST-Tie2 (Homo sapiens, UniProt Q02763); experiment: GST-Tie kinase activity assay; format: biochemical
T2 construct: Each reaction comprised 5 μg GST-Tie2 (intracellular kinase domain); made in house; host or cells: baculovirus (pAcG1 vector)
Description: To determine the effect of SCY on GST-Tie kinase activity, the following assay was conducted. Clones for the Tie2 receptor were obtained and submitted for confirmatory sequence analysis. Similar to the method described by Huang et al. (1995) Oncogene 11:2097-2103, which is herein incorporated by reference, GST fusion constructs using the human Tie kinase domains and the commercially available pAcG1 vector (Pharmigen, San Diego, Calif.) were constructed. […] The desired restriction fragment was recovered from a partial Tie2 cDNA clone and then subcloned directly into the EcoRI site of the commercially pAcG1 expression vector. These final constructs were transfected into the baculovirus and GST-Tie2 kinase was semipurified using a glutathione affinity column to greater than about 90% purity, as determined via SDS-PAGE analysis and Coomassie Blue staining.
The kinase assay is carried out in 96 well flashplates and in the same kinase buffer used in the PLK1 kinase assays. Each reaction comprised 5 μg GST-Tie2 (intracellular kinase domain), 1 μCi [^33P]-γATP, 30 μM cold ATP in 60 μl. Compounds were in DMSO to give a final concentration of 1% DMSO. The reaction was incubated for 2 hours at 30° C. and terminated by washing the plate five times with 10 μM cold ATP. Reactions were quantitated by using a Packard Top-Count.

PKA = molecular target: T3, PKA (Bos taurus, UniProt P00517); experiment: PKA activity assay; format: biochemical, bovine
T3 construct: 0.5 μg PKA (from bovine heart supplied by Sigma, St. Louis, Mo.); purchased Sigma, St. Louis, Mo; host or cells: bovine heart tissue
Description: as §1

T2 sequence (Q02763 824-1096 limits assumed): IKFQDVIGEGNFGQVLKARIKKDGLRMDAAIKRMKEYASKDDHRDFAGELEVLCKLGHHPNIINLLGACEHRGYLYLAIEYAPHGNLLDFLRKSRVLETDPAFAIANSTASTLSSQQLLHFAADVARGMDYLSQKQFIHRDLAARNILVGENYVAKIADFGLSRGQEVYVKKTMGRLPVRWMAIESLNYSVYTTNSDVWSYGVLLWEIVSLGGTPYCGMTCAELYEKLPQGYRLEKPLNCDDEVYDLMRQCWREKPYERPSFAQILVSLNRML
T1 sequence (P05771 1-673 isoform P05771-2): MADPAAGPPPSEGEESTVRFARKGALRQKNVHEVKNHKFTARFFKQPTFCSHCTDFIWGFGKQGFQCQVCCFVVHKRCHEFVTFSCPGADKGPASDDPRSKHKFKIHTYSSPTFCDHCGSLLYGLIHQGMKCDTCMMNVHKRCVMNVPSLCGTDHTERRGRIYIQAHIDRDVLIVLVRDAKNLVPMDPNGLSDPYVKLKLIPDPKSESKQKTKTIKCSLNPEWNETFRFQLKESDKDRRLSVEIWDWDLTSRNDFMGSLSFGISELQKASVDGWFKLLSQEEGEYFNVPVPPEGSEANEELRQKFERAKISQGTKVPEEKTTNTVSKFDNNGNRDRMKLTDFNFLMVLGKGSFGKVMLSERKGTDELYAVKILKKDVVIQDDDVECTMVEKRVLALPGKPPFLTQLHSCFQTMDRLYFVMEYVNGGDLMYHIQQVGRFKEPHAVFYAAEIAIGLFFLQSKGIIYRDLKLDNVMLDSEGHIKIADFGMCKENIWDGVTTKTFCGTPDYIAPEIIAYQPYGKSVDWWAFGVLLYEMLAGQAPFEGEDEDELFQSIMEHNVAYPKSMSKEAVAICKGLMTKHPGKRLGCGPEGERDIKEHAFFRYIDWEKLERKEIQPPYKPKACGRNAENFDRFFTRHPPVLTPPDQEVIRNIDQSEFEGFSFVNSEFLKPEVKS

## scytonemin
rhPKCβ2
  IC50: ~3 µM
[1]; PMA-treated mouse ears
  thickness of the epidermal layer: reduced the thickness of the epidermal layer
[1]; scytonemin 1 mg/ear, dexamethasone 0.15 mg/ear, PMA 4 μg/ear
  tissue hyperplasia (histology, hematoxlin): to about normal
[1]; topical
  ED50 skin hyperplasia (IUdR incorporation): about 0.270±0.11 mg/ear
Jurkat T cells
  effect on cell cycle progression: did not have any cell cycle specific effect
  induction of apoptosis (DNA fragmentation): cause the cells to undergo apoptosis in all phases of the cell cycle
GST-Tie2
  IC50: > 10 µM
GST-Tie2; 30 μM cold ATP
  concentration at which GST-Tie2 activity is significantly affected or inhibited: ≥ 10 µM
PKA
  IC50: > 10 µM
PKA; 0.01 μM ATP
  concentration at which PKA activity is significantly affected or inhibited: ≥ 10 µM

— US6495588B2, “Scytonemin and methods of using thereof” (The Regents of the University of California, priority 2000, dated 2002)
